System: Biomphalaria glabrata
Experiment: Molluscicidal activity against Biomphalaria glabrata assessed as minimum concentration required to cause mortality measured after 24 hrs
Assay type: functional

| SMILES | Activity |
| --- | --- |
| CC1(C)CC[C@]2(C(=O)O)CC[C@]3(C)C(=CC[C@@H]4[C@@]5(C)CC[C@H](O)C(C)(C)[C@@H]5CC[C@]43C)[C@@H]2C1 [OLEANOLIC_ACID] | 0 ppm |
| C[C@@H]1O[C@@H](O[C@@H]2[C@@H](O)[C@H](O[C@H]3CC[C@]4(C)[C@H]5CC=C6[C@@H]7CC(C)(C)CC[C@]7(C(=O)O)CC[C@@]6(C)[C@]5(C)CC[C@H]4C3(C)C)O[C@H](C(=O)O)[C@H]2O)[C@H](O)[C@H](O)[C@H]1O | 4 ppm |
| CC1(C)CC[C@]2(C(=O)O)CC[C@]3(C)C(=CC[C@@H]4[C@@]5(C)CC[C@H](O[C@@H]6O[C@H](C(=O)O)[C@@H](O)[C@H](O[C@@H]7OC[C@@H](O)[C@H](O)[C@H]7O)[C@H]6O)C(C)(C)[C@@H]5CC[C@]43C)[C@@H]2C1 | 4 ppm |
| CC1(C)CC[C@]2(C(=O)O)CC[C@]3(C)C(=CC[C@@H]4[C@@]5(C)CC[C@H](O[C@@H]6O[C@H](C(=O)O)[C@@H](O)[C@H](O)[C@H]6O)C(C)(C)[C@@H]5CC[C@]43C)[C@@H]2C1 | 2 ppm |
| CC1(C)CC[C@]2(C(=O)O)CC[C@]3(C)C(=CC[C@@H]4[C@@]5(C)CC[C@H](O[C@@H]6OC[C@@H](O)[C@H](O)[C@H]6O)C(C)(C)[C@@H]5CC[C@]43C)[C@@H]2C1 | >16 ppm |
